According to PubChem BioAssay AID434987 (Southern Research Specialized Biocontainment Screening …, 2010):
pIC50: −log10 of the molar value. Calls of active or inactive are those of the source. The rule behind the calls is not given here.

System: M. tuberculosis H37Rv growth inhibition with meropenem
Test: dose response, H37Rv, with and without meropenem (AID 434987);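 note: growth over 7 days at 37 °C before Alamar Blue read on day 9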
[1] = M. tuberculosis H37Rv growth inhibition, measured here: IC50 without meropenem
[2] = M. tuberculosis H37Rv growth inhibition, measured here: IC90 without meropenem
[3] = measured here: IC90 with meropenem

SMILES | IC50 | pIC50 [1] | IC90 [2] | IC90 [3] | pIC50
O=C(CSc1ncnc2c1cnn2-c1ccccc1)Nc1ccc2c(c1)OCO2 | 27.3 µM (inactive) | 4.31 | > 100 µM | > 100 µM | 
CCNC(=O)CCn1nc(-c2ccc(Cl)cc2)c2ccccc2c1=O |  | < 4.00 | > 100 µM | > 100 µM | 4.63
CCN(CC)C(=O)COc1ccc(-c2nnc(Nc3ccc(OC)c(C(=O)NC)c3)c3ccccc23)cc1 | 68.8 µM (inactive) | 4.08 | > 100 µM | > 100 µM | 
CC(/C=C(\NC(=O)c1ccccc1)C(=O)N=Nc1c(O)[nH]c2ccc(C)cc12)=C\c1ccccc1 | > 100 µM (inactive) | < 4.00 | > 100 µM | > 100 µM | 
C=C(C)C(=O)O[C@H]1C/C(C)=C\C(=O)/C=C(\C)[C@H](O)[C@@H]2OC(=O)C(=C)[C@@H]21 |  | 4.39 | 56 µM | 31.3 µM | 4.99
COc1cc(OC)cc(-c2nnc(NC(=O)CCS(=O)(=O)c3ccc(C)cc3)o2)c1 |  | < 4.00 | > 100 µM | > 100 µM | 4.49
O=C1CC(Nc2ccc(N3CCOCC3)cc2)C(=O)N1C1CCCCC1 (stereo unspecified) | > 100 µM (inactive) | < 4.00 | > 100 µM | > 100 µM | 
Cc1ccccc1OCC(=O)Nc1ccccc1-c1ccccc1 |  | < 4.00 | > 100 µM | > 100 µM | 5.22
O=C(Nc1ccccc1)c1c2c(nc3ccccc13)CCCC2 |  | < 4.00 | > 100 µM | > 25 µM | 4.77
N#Cc1c(SCC(=O)O)nc(N2CCCCC2)c2c1CCCC2 |  | 4.30 | > 100 µM | 27 µM | 4.81
O=C(Cc1ccccc1)NC(=S)Nc1ccc(N2CCCCC2)cc1 | > 100 µM (inactive) | < 4.00 | > 100 µM | > 100 µM | 
O=C(Nc1cccc(Cl)c1N1CCOCC1)c1ccc([N+](=O)[O-])o1 |  | 4.96 | > 100 µM | 38.2 µM | 6.04
CSc1cccc(NC(=O)c2ccc(Cl)nc2)c1 | > 100 µM (inactive) | < 4.00 | > 100 µM | > 100 µM | 
CN(C(=O)Nc1ccc(Cl)cc1)n1cnc2ccccc2c1=O | 44.9 µM (inactive) | 4.02 | > 100 µM | 48.6 µM | 
O=C(Nc1ccc([N+](=O)[O-])cc1)c1cc2ccccc2nc1Cl | > 100 µM (inactive) | < 4.00 | > 100 µM | > 100 µM | 
CCCCCn1c(=O)c(C(=O)Nc2cnccn2)c(O)c2ccccc21 | 10.8 µM (inactive) | 4.86 | 16.4 µM | 13.8 µM | 
COC(=O)Cn1nc(-c2ccccc2)c2ccccc21 | > 100 µM (inactive) | < 4.00 | > 100 µM | > 100 µM | 
O=C1C(Cl)=C(N2CCCCC2)C(=O)N1c1ccccc1 |  | < 4.00 | > 100 µM | > 50 µM | 4.62
S=c1[nH]cnc2scc(-c3ccc(Br)cc3)c12 |  | 4.01 | > 100 µM | > 100 µM | 4.54
CCc1cc2c(=O)oc(-c3ccccc3F)nc2s1 | > 100 µM (inactive) | < 4.00 | > 100 µM | > 100 µM | 

SMILES | IC50 | pIC50 [1] | IC90 [2] | IC90 [3] | pIC50
O=C(COC(=O)c1ccc([N+](=O)[O-])s1)NCc1ccc(F)cc1 | 37.9 µM (inactive) | 4.25 | > 100 µM | > 100 µM | 
CC(C)(C)c1nnc2sc(SCC(=O)c3cccs3)nn2c1=O |  | < 4.00 | > 100 µM | > 100 µM | 4.71
Clc1ccc(-c2csc3ncnc(N4CCc5ccccc5C4)c23)cc1 | 95.4 µM (inactive) | < 4.00 | > 100 µM | > 100 µM | 
COC(=O)c1c(NC(=O)C2c3ccccc3Oc3ccccc32)sc(C)c1C | > 100 µM (inactive) | < 4.00 | > 100 µM | > 100 µM | 
CS(=O)(=O)N(Cc1ccccc1)c1ccc(C(=O)N2CCN(c3cccc(Cl)c3)CC2)cc1 | > 100 µM (inactive) | < 4.00 | > 100 µM | > 100 µM | 
COc1ccc2oc(=N)c(C(=O)Nc3ccccc3)cc2c1 | > 100 µM (inactive) | < 4.00 | > 100 µM | > 100 µM | 
Cc1cc(C(=O)Nc2ccc(Br)cc2F)n(-c2ccccc2)n1 | > 100 µM (inactive) | < 4.00 | > 100 µM | > 100 µM | 
CCCCNC(=O)/C(=C/c1ccccc1)NC(C)=O | > 100 µM (inactive) | < 4.00 | > 100 µM | > 100 µM | 
CONC(=O)c1cc(OCC(F)(F)F)ccc1OCC(F)(F)F | > 100 µM (inactive) | < 4.00 | > 100 µM | > 100 µM | 
COc1ccc(OC)c(NC(=O)c2ccccc2SC)c1 |  | 4.08 | > 100 µM | > 100 µM | 4.70
Cc1ccc(S(=O)(=O)Nc2cccc3cccnc23)c([N+](=O)[O-])c1 |  | 5.04 | 12.4 µM | 4.7 µM | 5.96
C=CCOc1ccc(C2N3CC4(C)CN2CC(CCC)(C3)C4=O)cc1 (stereo unspecified) | > 100 µM (inactive) | < 4.00 | > 100 µM | > 100 µM | 
C=CCC(Nc1ccccc1)C12C=CC(O1)C(C(=O)OC)=C2C(=O)OC (stereo unspecified) | > 100 µM (inactive) | < 4.00 | > 100 µM | > 100 µM | 
O=C(OCC(=O)N1CCc2ccccc21)c1ccc(Cl)nc1 | 22.8 µM (inactive) | 4.36 | > 100 µM | > 100 µM | 
CN(C)C1=C(Cl)C(=O)N(c2ccc(Cl)c(Cl)c2)C1=O |  | 5.10 | 24 µM | 14.9 µM | 5.56
COC(=O)CNC(c1ccccc1Cl)c1cc(Br)ccc1NC(=O)CCN1CCOCC1 (stereo unspecified) |  | 4.31 | 53.7 µM | 34.3 µM | 4.70
COc1ccc(NCC(=O)N/N=C/C(C)c2ccccc2)cc1 (stereo unspecified) | > 100 µM (inactive) | < 4.00 | > 100 µM | > 100 µM | 
Cc1ccc(C)c(NC(=O)C(Sc2nc3ccccc3c(=O)n2CC(C)C)c2ccccc2)c1 (stereo unspecified) | 58.8 µM (inactive) | < 4.00 | > 100 µM | > 100 µM | 
CNC(=S)N/N=C1\C(=O)c2cccc3cccc1c23 |  | < 4.00 | > 100 µM | > 100 µM | 4.70
O=C(Cc1ccccc1Cl)Nc1nc2ccccc2[nH]1 |  | < 4.00 | > 100 µM | > 25 µM | 5.03

SMILES | IC50 | pIC50 [1] | IC90 [2] | IC90 [3] | pIC50
CCN(CC)C(=O)CSc1nnc2nnc3cc(OC)ccc3n12 | 12 µM (inactive) | 4.56 | 51.7 µM | 13.4 µM | 
COc1cccc(/C=N/Nc2nc(N3CCCC3)nc(N3CCCC3)n2)c1O |  | 4.60 | 63.7 µM | 36.1 µM | 5.09
COC(=O)c1sc(-c2ccc(C(C)(C)C)cc2)cc1NC(=O)CCC(=O)O |  | 4.62 | > 100 µM | 28.7 µM | 5.86
COc1cc(/C=C/C(=O)OCC(=O)Nc2ccc(Cl)cn2)ccc1O |  | < 4.00 | > 100 µM | > 100 µM | 4.40
CSc1nnc(C)c(/C=C/Nc2ccc(Cl)cc2)n1 | 94 µM (inactive) | 4.02 | > 100 µM | > 100 µM | 
CCC(=O)Nc1cc(OC)c(NC(=O)c2ccccc2)cc1OC |  | 4.03 | > 100 µM | > 100 µM | 4.64
CCn1c(-c2ccc(-c3ccccc3)cc2)c[nH]c1=S | 29.1 µM (inactive) | 4.32 | > 100 µM | > 100 µM | 
Nc1n[nH]c(N)c1N=Nc1cccc(F)c1 | > 100 µM (inactive) | < 4.00 | > 100 µM | > 100 µM | 
O=C(Cn1nnc2c(cnn2-c2ccccc2)c1=O)N1CCN(c2ccccc2F)CC1 | > 100 µM (inactive) | < 4.00 | > 100 µM | > 100 µM | 
O=C(CCSc1nnc(-c2ccncc2)o1)Nc1ccccc1Cl | > 100 µM (inactive) | < 4.00 | > 100 µM | > 100 µM | 
CN(c1ccc(OCC(=O)Nc2ccc3[nH]c(=O)[nH]c3c2)cc1)S(=O)(=O)c1ccc(Cl)cc1 | > 100 µM (inactive) | < 4.00 | > 100 µM | > 100 µM | 
CCC(=O)NC(=S)Nc1ccc(NC(=O)c2ccc(C)c([N+](=O)[O-])c2)cc1 | > 100 µM (inactive) | < 4.00 | > 100 µM | > 100 µM | 
COc1cccc(/C=N/NC(=O)CSCC(=O)Nc2ccccc2)c1O |  | < 4.00 | > 100 µM | > 100 µM | 5.27
O=C(CCN1C(=O)/C(=C/c2ccccc2F)SC1=S)Nc1ccccn1 | > 100 µM (inactive) | < 4.00 | > 100 µM | > 100 µM | 
N#CCOC(=O)/C=C/c1ccc2c(c1)OCO2 |  | < 4.00 | > 100 µM | > 50 µM | 4.53
C=CCSc1nccc(-c2nn(-c3ccc(C)cc3)ccc2=O)n1 | 94.1 µM (inactive) | < 4.00 | > 100 µM | > 100 µM | 
COc1nc(Nc2nc3ccccc3c(=O)[nH]2)nc2ccc(C)cc12 | > 100 µM (inactive) | < 4.00 | > 100 µM | > 100 µM | 
CN1C2CCC1CC(OC(=O)c1ccc([N+](=O)[O-])cc1)C2 (stereo unspecified) | > 100 µM (inactive) | < 4.00 | > 100 µM | > 100 µM | 
COc1ccc(C2C(C#N)=C(SCC(=O)Nc3ccc(C)cc3)NC3=C2C(=O)CC(C)(C)C3)cc1 (stereo unspecified) | 94.3 µM (inactive) | < 4.00 | > 100 µM | > 100 µM | 
